Source: the NIST ThermoML archive (doi:10.1016/j.fluid.2014.09.014)

Assay: refractive index (other wavelength) (dimensionless); xn = mol fraction of the nth substance listed
Details: 101 kPa, Liquid, Standard Abbe refractometry

CC(C)OC(C)C [diisopropyl ether] + CO
refractive index
Details	Wavelength=40.47 nm	Wavelength=486.1 nm	Wavelength=546.1 nm	Wavelength=587.6 nm	Wavelength=589.3 nm	Wavelength=632.8 nm	Wavelength=644 nm	Wavelength=706.5 nm
303.15 K, x2 = 0	–	–	1.36406	1.3626	1.36255	1.3613	1.361	1.3596
303.15 K, x2 = 0.0424	–	–	1.36403	1.36256	1.36251	1.36124	1.36094	1.35954
303.15 K, x2 = 0.082	–	–	1.36396	1.3625	1.36245	1.3612	1.3609	1.35948
303.15 K, x2 = 0.0822	–	–	1.36406	1.36261	1.36256	1.36129	1.36099	–
303.15 K, x2 = 0.1171	–	–	1.36389	1.36245	1.3624	1.36114	1.36084	1.35943
303.15 K, x2 = 0.1271	–	1.36672	1.36392	1.36246	1.3624	1.36116	1.36086	1.35944
303.15 K, x2 = 0.1827	–	1.36639	1.36258	1.36214	1.36209	1.36085	1.36055	1.35913
303.15 K, x2 = 0.2162	–	1.36618	1.36341	1.36196	1.36191	1.36065	1.36036	1.35895
303.15 K, x2 = 0.251	–	1.36621	1.36343	1.36198	1.36193	1.36068	1.36039	1.35898
303.15 K, x2 = 0.3298	–	1.36561	1.36283	1.3614	1.36134	1.36011	1.35981	1.35839
303.15 K, x2 = 0.3577	–	1.36581	1.36302	1.36159	1.36153	1.36029	1.35999	1.35898
303.15 K, x2 = 0.4497	–	1.36334	1.36058	1.35917	1.35912	1.35789	1.3576	1.35619
303.15 K, x2 = 0.4525	–	1.36382	1.36107	1.35964	1.35959	1.35835	1.35805	1.35666
303.15 K, x2 = 0.522	–	1.36159	1.35886	1.35746	1.35741	1.35619	1.3559	1.3545
303.15 K, x2 = 0.5543	–	1.36106	1.35836	1.35695	1.3569	1.35568	1.35539	1.35399
303.15 K, x2 = 0.609	–	1.35828	1.35561	1.35421	1.35416	1.35295	1.35266	1.35129
303.15 K, x2 = 0.6529	–	1.35681	1.35414	1.35275	1.35269	1.3515	1.35122	1.34985
303.15 K, x2 = 0.7504	–	1.35295	1.35029	1.34898	1.34888	1.34771	1.34743	1.34608
303.15 K, x2 = 0.804	–	1.34869	1.34608	1.34474	1.34469	1.34354	1.34327	1.34193
303.15 K, x2 = 0.807	–	1.34861	1.34603	1.34467	1.34462	1.34346	1.3432	1.34186
303.15 K, x2 = 0.8727	–	1.34352	1.34092	1.33965	1.3396	1.33846	1.3382	1.33691
303.15 K, x2 = 0.9233	–	1.33657	1.33409	1.33279	1.33274	1.33164	1.33139	1.33015
303.15 K, x2 = 0.9253	–	1.33839	1.3359	1.33458	1.33453	1.33342	1.33317	1.3319
303.15 K, x2 = 0.9527	–	1.33525	1.33279	1.3315	1.33145	1.33035	1.33009	1.32886
303.15 K, x2 = 0.9773	–	1.33174	1.32933	1.32803	1.32799	1.32689	1.32665	1.32546
303.15 K, x2 = 0.989	–	1.33062	1.3282	1.32693	1.32688	1.32579	1.32555	1.32216
303.15 K, x2 = 0.9964	–	1.32929	1.32688	1.32561	1.32557	1.32451	1.32427	1.32308
308.15 K, x2 = 0	1.37035	–	–	–	–	–	–	–
308.15 K, x2 = 0.0423	1.37024	–	–	–	–	–	–	–
308.15 K, x2 = 0.0424	1.37025	–	–	–	–	–	–	–
308.15 K, x2 = 0.082	1.37021	–	–	–	–	–	–	–
